From patent US20080038276A1, “INHIBITORS OF PLASMA KALLIKREIN” (Activesite Pharmaceuticals, Inc., priority 2006, published 2008)
Like-named read-outs stand apart in the source and are kept apart here. Square brackets hold non-standard residues; d marks the D form. * marks the point of attachment. CH2Cl = ClC*

Legend:
patients with HAE = conditions: in vivo; cited from earlier work
rat models of arthritis = conditions: in vivo; cited from earlier work
[1] = test system: LPS or bacterial induced sepsis in animals; conditions: in vivo; cited from earlier work
[2] = test system: plasmin-activated coagulation in plasma; assay: Plasmin-activated coagulation of plasma (plasmin + 6.25% Actin FS), time to coagulation; set-up: species or system human; conditions: for prolongs time to coagulation: normal plasma; for relative coagulation time: 50% plasma, 6.25% Actin FS, control 1.00
Procedure: In the clotting paradigm utilized in Example 3, plasma is mixed 1:1 with commercially formulated Actin FS. Thus, 50% (v/v) Actin FS is the maximum amount of activator that can be added while maintaining the amount of plasma constant at 50% of the incubation mixture. Since the clotting time in normal plasma is dependent on the amount of Actin FS present in the incubation mixture, these conditions would by definition lead to the shortest time to coagulation mediated by the intrinsic pathway in this paradigm. Lowering the amount of contact activator leads to a decrease in the amount of PK activated, thus reducing the amount of thrombin generated and slowing the time to coagulation (data not shown). Therefore, in order to determine whether addition of exogenous plasmin (mimicking a fibrinolytic setting) can shorten time to coagulation, the amount of Actin FS reagent added to the plasma (kept constant at 50% of the final incubation mixture) was lowered so as to attain 6.25% (final v/v).
This provides direct evidence that plasmin can have a thrombogenic effect when added to plasma in the presence of a small amount of contact activator.
The role for PK was established by evaluating deficiencies in PK, as well as by using two specific inhibitors of the enzymes. In order to determine whether blocking PK via a specific monoclonal antibody (MAb) would also be effective in inhibiting coagulation in either of the two paradigms described here, and thus provide additional validation for the invention, MAb 13G11, which has been previously characterized as being specific for PK (Veloso et al, (1987) Blood, 70, 1053-1062), was tested in each of the coagulation paradigms described in Examples 2 and 3. MAb 13G11 (obtained from GeneTex, San Antonio, Tex.) was added at a final concentration of 0.036 mg/ml in the 50% plasma—50% activator mix in each paradigm. This calculates to an approximately 2-fold molar excess over the amount of PK that would be present in the plasma—activator mixture, based on the literature reference of Veloso et al, (1987), Blood, 70, 1053-1062. Control samples were treated with 0.036 mg/ml of an isotype-matched control IgG1 (also obtained from GeneTex). When plasma was activated using 50% Actin FS (FIG. 5), MAb 13G11 prolonged time to coagulation by 100% (45% of the maximal effect obtained with PK-deficient plasma), and, when plasma was activated using 200 nM plasmin+6.25% Actin FS (FIG. 6), prolonged time to coagulation by 32% (40% of the maximal effect obtained with PK-deficient plasma).

[3] = target: T1, Human plasma kallikrein (PK) (Homo sapiens, UniProt P03952); assay: Inhibition of human plasma kallikrein amidolytic activity (H-D-Pro-Phe-Arg-pNA cleavage, A405); format: biochemical
T1 construct: purchased Haemtech Technologies (Essex Junction, Vt.)
Procedure: Human plasma kallikrein (PK) was obtained from Haemtech Technologies (Essex Junction, Vt.). The enzymatic activity of PK was assayed using the synthetic peptide substrate H-D-Pro-Phe-Arg-pNA (Bachem, Inc., Switzerland) with the cleavage of the substrate by the enzyme resulting in an increase in A405, measured using a Molecular Devices Vmax Kinetic Microplate Reader. The uninhibited (control) activity of PK was determined by adding 190 μl of PK solution (1 nM in 0.05 M HEPES, pH 7.5, 0.01% Triton X-100) to 10 μl of H-D-Pro-Phe-Arg-pNA (2 mM in DMSO) in individual microtiter plate wells, mixed immediately by shaking, and the rate of increase in A405 determined over 120-180 sec. In parallel, compounds of the present invention were mixed in separate wells with the synthetic substrate to attain final concentrations of between 0.01-10 μM in the final 200 μl reaction mixture, and the reaction initiated by the addition of 190 μl of the PK solution.
(§1) The highest concentration of either compound tested was 10 μM.

Thrombin = Thrombin (Homo sapiens, UniProt P00734); assay: Specificity profile: amidolytic activity with synthetic substrate; format: biochemical; conditions: highest concentration tested 10 μM
Procedure: as §1

FXIIa = target: T2, FXIIa (Homo sapiens, UniProt P00748); assay: as above; format: biochemical; conditions: highest concentration tested 10 μM
T2 sequence (P00748 373-615 limits assumed): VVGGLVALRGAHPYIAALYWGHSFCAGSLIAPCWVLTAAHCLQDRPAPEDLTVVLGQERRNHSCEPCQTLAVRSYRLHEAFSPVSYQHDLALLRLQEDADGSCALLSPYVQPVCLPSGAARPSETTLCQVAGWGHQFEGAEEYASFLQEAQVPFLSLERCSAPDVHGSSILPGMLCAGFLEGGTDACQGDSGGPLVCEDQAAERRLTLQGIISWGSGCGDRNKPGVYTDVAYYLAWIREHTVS
Procedure: as §1

FXa = FXa (Homo sapiens, UniProt P00742); assay: as above; format: biochemical; conditions: highest concentration tested 10 μM
Procedure: as §1

Plasmin = target: T3, Plasmin (Homo sapiens, UniProt P00747); assay: as above; format: biochemical; conditions: highest concentration tested 10 μM
T3 construct: agents that lead to the generation of active plasmin from plasminogen
Procedure: as §1

FXIa = FXIa (Homo sapiens, UniProt P03951); assay: as above; format: biochemical; conditions: highest concentration tested 10 μM
Procedure: as §1

mouse model of MCAO = conditions: in vivo; cited from earlier work
sepsis patients = conditions: in vivo; cited from earlier work
[4] = apparent inhibition constant, 1 nM PK, pH 7.5, read-out: PK Kiapp
[5] = purified human PK, highest concentration tested 10 μM, read-out: Ki PK

T1 sequence (P03952 391-638 limits assumed): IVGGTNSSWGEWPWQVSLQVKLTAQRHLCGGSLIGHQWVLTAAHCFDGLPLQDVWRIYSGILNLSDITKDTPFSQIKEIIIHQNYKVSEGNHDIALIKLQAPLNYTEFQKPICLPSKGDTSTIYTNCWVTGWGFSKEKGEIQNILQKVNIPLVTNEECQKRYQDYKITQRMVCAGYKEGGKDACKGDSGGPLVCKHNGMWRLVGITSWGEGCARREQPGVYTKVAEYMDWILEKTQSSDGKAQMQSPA
T1 sequence (P03952 20-390 partner limits assumed): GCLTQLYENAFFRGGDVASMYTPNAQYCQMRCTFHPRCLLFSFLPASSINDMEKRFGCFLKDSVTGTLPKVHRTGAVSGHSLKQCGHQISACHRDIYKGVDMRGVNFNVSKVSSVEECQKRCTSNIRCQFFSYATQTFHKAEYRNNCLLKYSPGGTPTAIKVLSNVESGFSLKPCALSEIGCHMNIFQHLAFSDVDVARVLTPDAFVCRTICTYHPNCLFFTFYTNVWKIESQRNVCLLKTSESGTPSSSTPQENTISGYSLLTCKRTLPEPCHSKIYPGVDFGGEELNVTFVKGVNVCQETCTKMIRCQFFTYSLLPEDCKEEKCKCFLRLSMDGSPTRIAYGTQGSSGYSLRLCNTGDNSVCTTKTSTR
Sequence of FXIa (P03951 388-625 limits assumed): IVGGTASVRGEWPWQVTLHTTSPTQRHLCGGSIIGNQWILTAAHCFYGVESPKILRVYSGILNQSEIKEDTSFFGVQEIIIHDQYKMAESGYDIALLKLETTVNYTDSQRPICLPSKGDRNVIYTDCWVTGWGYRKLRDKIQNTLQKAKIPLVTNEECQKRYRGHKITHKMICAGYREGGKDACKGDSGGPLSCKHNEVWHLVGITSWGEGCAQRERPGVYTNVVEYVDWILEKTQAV
Sequence of FXIa (P03951 19-387 partner limits assumed): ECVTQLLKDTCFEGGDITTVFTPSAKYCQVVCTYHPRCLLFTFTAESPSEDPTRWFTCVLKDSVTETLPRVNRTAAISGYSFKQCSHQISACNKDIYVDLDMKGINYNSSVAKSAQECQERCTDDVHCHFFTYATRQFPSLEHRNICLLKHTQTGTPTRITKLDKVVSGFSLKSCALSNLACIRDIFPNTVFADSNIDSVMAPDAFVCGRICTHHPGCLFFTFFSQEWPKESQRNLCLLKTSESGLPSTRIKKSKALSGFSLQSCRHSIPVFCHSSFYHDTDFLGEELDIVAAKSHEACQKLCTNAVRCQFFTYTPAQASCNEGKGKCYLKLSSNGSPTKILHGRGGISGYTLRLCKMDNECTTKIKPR
Sequence of FXa (P00742 235-488 limits assumed): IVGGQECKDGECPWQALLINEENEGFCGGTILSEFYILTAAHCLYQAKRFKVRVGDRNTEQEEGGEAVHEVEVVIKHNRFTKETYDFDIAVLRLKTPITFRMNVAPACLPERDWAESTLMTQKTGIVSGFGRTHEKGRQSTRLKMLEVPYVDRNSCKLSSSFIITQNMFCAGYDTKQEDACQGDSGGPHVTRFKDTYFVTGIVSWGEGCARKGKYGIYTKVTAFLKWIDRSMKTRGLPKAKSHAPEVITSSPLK
Sequence of FXa (P00742 41-179 partner limits assumed): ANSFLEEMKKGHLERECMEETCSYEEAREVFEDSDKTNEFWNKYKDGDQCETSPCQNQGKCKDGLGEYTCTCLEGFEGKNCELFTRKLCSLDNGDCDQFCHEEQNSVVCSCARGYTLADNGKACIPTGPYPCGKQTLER

NC(N)=NCCC[C@@H](N)C(=O)N[C@@H](CCCN=C(N)N)C(=O)N1CCC[C@H]1C(=O)N1C[C@H](O)C[C@H]1C(=O)NCC(=O)N[C@@H](Cc1cccs1)C(=O)N[C@@H](CO)C(=O)N1Cc2ccccc2C[C@@H]1C(=O)N1[C@H](C(=O)N[C@@H](CCCN=C(N)N)C(=O)O)C[C@@H]2CCCC[C@@H]21 [Icatibant]
treating HAE (patients with HAE): effective

Cl.NCC1CCC(C(=O)N[C@@H](Cc2ccccc2)C(=O)Nc2ccc(CC(=O)O)cc2)CC1 (stereo partly shown) [PKSI-527]
joint swelling (rat models of arthritis): reduce

H-[dP]-Phe-Arg-CH2Cl [reference compound]
vascular permeability in multiple organs and lesions [1]: reduce

N=C(N)c1ccc(CNC(=O)c2cnn(Cc3ccccc3)c2)cc1 [ASP-440, 1-Benzyl-1H-pyrazole-4-carboxylic acid 4-carbamimidoyl-benzylamide]
prolongs time to coagulation ([2]; 200 nM plasmin, compound 10 μM): 36% | Ki [3, 4]: 0.31 µM | Ki [3, 5]: 0.09 µM | Ki (Thrombin): > 10 µM | Ki (FXIIa): > 10 µM | Ki (FXa): > 10 µM | Ki (Plasmin): > 10 µM | Ki (FXIa): > 10 µM

Cc1cc(C(=O)NCc2ccc(C(=N)N)cc2)c(C)n1Cc1ccncc1 [ASP-465, 2,5-Dimethyl-1-pyridin-4-ylmethyl-1H-pyrrole-3-carboxylic acid 4-carbamimidoyl-benzylamide]
block of the plasmin-induced shortening of time to coagulation attributable to PK ([2]; 10 μM): almost completely blocks | prolongs time to coagulation ([2]; 200 nM plasmin, compound 3.3 or 10 μM): 36-75% | potency towards inhibiting plasmin-activated coagulation relative to ASP-440 ([2]; same prolongation at 3.3 μM as ASP-440 at 10 μM): 3 fold | Ki [3, 4]: 0.08 µM | Ki [3, 5]: 0.03 µM | potency (Ki) towards PK relative to ASP-440 ([3]; ratio of Ki values): 3 fold | Ki (Thrombin): > 10 µM | Ki (FXIIa): > 10 µM | Ki (FXa): > 10 µM | Ki (Plasmin): > 10 µM | Ki (FXIa): > 10 µM

B1: C1-INH: a physiological inhibitor (protein, UniProt P05155 23-500, looked up)
Plasma protease C1 inhibitor: NPNATSSSSQDPESLQDRGEGKVATTVISKMLFVEPILEVSSLPTTNSTTNSATKITANTTDEPTTQPTTEPTTQPTIQPTQPTTQLPTDSPTQPTTGSFCPGPVTLCSDLESHSTEAVLGDALVDFSLKLYHAFSAMKKVETNMAFSPFSIASLLTQVLLGAGENTKTNLESILSYPKDFTCVHQALKGFTTKGVTSVSQIFHSPDLAIRDTFVNASRTLYSSSPRVLSNNSDANLELINTWVAKNTNNKISRLLDSLPSDTRLVLLNAIYLSAKWKTTFDPKKTRMEPFHFKNSVIKVPMMNSKKYPVAHFIDQTLKAKVGQLQLSHNLSLVILVPQNLKHRLEDMEQALSPSVFKAIMEKLEMSKFQPTLLTLPRIKVTTSQDMLSIMEKLEFFDFSYDLNLCGLTEDPDLQVSAMQHQTVLELTETGVEAAAASAISVARTLLVFEVQQPFLFVLWDQQHKFPVFMGRVYDPRA
infarct size (mouse model of MCAO): reduced | clinical outcome in sepsis patients (sepsis patients): Clinical improvement | vascular permeability in multiple organs and lesions [1]: reduce

B2: plasmin: exogenous plasmin added to plasma, mimicking a fibrinolytic setting (protein, UniProt P00747 20-580; P00747 581-810, looked up)
Plasmin heavy chain A: EPLDDYVNTQGASLFSVTKKQLGAGSIEECAAKCEEDEEFTCRAFQYHSKEQQCVIMAENRKSSIIIRMRDVVLFEKKVYLSECKTGNGKNYRGTMSKTKNGITCQKWSSTSPHRPRFSPATHPSEGLEENYCRNPDNDPQGPWCYTTDPEKRYDYCDILECEEECMHCSGENYDGKISKTMSGLECQAWDSQSPHAHGYIPSKFPNKNLKKNYCRNPDRELRPWCFTTDPNKRWELCDIPRCTTPPPSSGPTYQCLKGTGENYRGNVAVTVSGHTCQHWSAQTPHTHNRTPENFPCKNLDENYCRNPDGKRAPWCHTTNSQVRWEYCKIPSCDSSPVSTEQLAPTAPPELTPVVQDCYHGDGQSYRGTSSTTTTGKKCQSWSSMTPHRHQKTPENYPNAGLTMNYCRNPDADKGPWCFTTDPSVRWEYCNLKKCSGTEASVVAPPPVVLLPDVETPSEEDCMFGNGKGYRGKRATTVTGTPCQDWAAQEPHRHSIFTPETNPRAGLEKNYCRNPDGDVGGPWCYTTNPRKLYDYCDVPQCAAPSFDCGKPQVEPKKCPGR
Plasmin light chain B: VVGGCVAHPHSWPWQVSLRTRFGMHFCGGTLISPEWVLTAAHCLEKSPRPSSYKVILGAHQEVNLEPHVQEIEVSRLFLEPTRKDIALLKLSSPAVITDKVIPACLPSPNYVVADRTECFITGWGETQGTFGAGLLKEAQLPVIENKVCNRYEFLNGRVQSTELCAGHLAGGTDSCQGDSGGPLVCFEKDKYILQGVTSWGLGCARPNKPGVYVRVSRFVTWIEGVMRNN
modifications: Plasmin
notes: exogenous plasmin added to plasma, mimicking a fibrinolytic setting
relative coagulation time ([2]; 100 nM plasmin): 0.74 | relative coagulation time ([2]; 200 nM plasmin): 0.65 | relative time to coagulation ([2]; 200 nM plasmin, absence of any Actin FS): 4.0
